Laboratory results from article PMC10818329, “An Ultra-Performance Liquid Chromatography–Tandem Mass Spectrometry (UPLC–MS/MS) Method for Qualifying DAPB in Rat Plasma and Application to Pharmacokinetic Studies” (Molecules, 2024).

Tests used:
[1] = Pharmacokinetic study of DAPB in rats (plasma, UPLC–MS/MS); assay type: in vivo, Sprague–Dawley (SD) rats
Experimental: Sprague–Dawley (SD) rats (180–200 g) were purchased from the Experimental Animal Center of Xi’an Jiaotong University (permit number SCXK 2017–003) and housed under controlled conditions (25 °C, 50 ± 5% humidity, and 12 h dark–light cycles). The animal protocol was approved by the Animal Ethics Committee of Xi’an Medical College. […] For the intravenous administration group, DAPB prepared in saline containing 5% DMSO was injected in the tail vein at a dose of 6 mg/kg. For the oral administration group, rats were given DAPB dissolved in 10% (2-hydroxypropyl)-β-cyclodextrin in water (10% HP-β-CD solution) containing 20% PEG200 and 20% propylene glycol at a dose of 30 mg/kg orally. Blood samples were collected in heparinized tubes pretreated with NaF via the ophthalmic venous plexus before and at 0.083, 0.17, 0.25, 0.50, 1.00, 2.00, 4.00, and 8.00 h after dosing. After centrifugation, the supernatant plasma was obtained and stored at −80 °C for further treatment. For the preparation of the plasma samples, 10 μL of the IS working solution (1 μg/mL), 1 μL of NaF (5 mg/mL), and 290 μL of acetonitrile were added to 100 μL of the plasma samples. Subsequently, the mixed plasma samples were centrifuged twice at 16,000× g for 5 min at 4 °C after vortexing for 30 s. For analysis, 10 μL of the supernatant was injected into the UPLC–MS/MS apparatus.

[2] = Stability of DAPB in rat plasma (NaF added); assay type: in vitro ADME; conditions: for Stability RE (%): n = 6
Experimental: Esterase widely exists in the blood, serum, and plasma of organisms. Therefore, DAPB may be unstable and easily hydrolyzed by plasma esterases owning to the ester group. In the method-development process, the stability of DAPB in whole blood and plasma was tested in detail. Low temperature is an important factor for maintaining the stability of the analyte; therefore, in our study, an ice-water bath was used to provide cooling conditions. Sodium fluoride (NaF), a typical esterase inhibitor, was pre-added in the collected blood samples to prevent the hydrolysis of DAPB. In the plasma with NaF added, DAPB was stable after being placed at room temperature for 4 h, −80 °C for 30 days, and then subject to three freeze/thaw cycles. In addition, the post-preparative plasma sample stored in an autosampler for 24 h remained stable.
The stability of DAPB in rat plasma was assessed by using QC samples at three concentrations in six replicates following three freeze/thaw cycles, short-term storage (room temperature for […]), long-term storage (−80 °C for 30 consecutive days), and autosampler rack storage (4 °C for 24 h). In freeze/thaw cycle tests, the QC samples were frozen and stored at −80 °C and then thawed at room temperature; this was repeated three times. The values of stability were calculated by comparing the concentrations of the QC samples following each storage period with the concentrations of the freshly prepared QC samples in the same analytical run.

SHR rats = test system: SHR rats; parameters: method as in PMID 37446639; conditions: cited from earlier work
[3] = Sprague-Dawley, rat plasma, intravenous administration at 6 mg/kg, mean ± SD (n = 6)
[4] = Sprague-Dawley, rat plasma, oral administration at 30 mg/kg, mean ± SD (n = 6)
[5] = rat plasma, oral administration at 30 mg/kg, mean ± SD (n = 6)

- bioavailability ([1]; Sprague-Dawley, plasma, rat, oral 30 mg/kg vs intravenous 6 mg/kg): 78.2%
- AUC(0-inf) [1, 3]: 13.8 ± 2.1 ng·h/mL
- AUC(0-t) [1, 3]: 11.8 ± 1.66 ng·h/mL
- half-life [1, 3]: 11.4 ± 0.6 min
- Vd ([1]; Sprague-Dawley, rat plasma, intravenous administration at 6 mg/kg, mean ± SD (n = 6), read-out: Vss): 910 ± 24.4 L/kg
- AUC(0-inf) [1, 4]: 53.9 ± 8.34 ng·h/mL
- AUC(0-t) [1, 4]: 49.6 ± 7.92 ng·h/mL
- Cmax [1, 4]: 33.2 ± 10.9 ng/mL
- Tmax [1, 4]: 14.7 min
- half-life [1, 4]: 97.8 ± 21.6 min
- CL [1, 5]: 89,992.36 ± 10,292.61 mL/h/kg
- Vss [1, 5]: 264.73 ± 65.86 L/kg
- Stability RE (%) ([2]; post-preparative rat plasma sample, autosampler rack (4 °C) for 24 h, spiked conc. 5 ng/mL): −11.6%
- Stability RE (%) ([2]; post-preparative rat plasma sample, autosampler rack (4 °C) for 24 h, spiked conc. 500 ng/mL): −7.4%
- Stability RE (%) ([2]; post-preparative rat plasma sample, autosampler rack (4 °C) for 24 h, spiked conc. 1000 ng/mL): −3.4%
- Stability RE (%) ([2]; rat plasma, room temperature for 2 h, spiked conc. 5 ng/mL): −10.2%
- Stability RE (%) ([2]; rat plasma, room temperature for 2 h, spiked conc. 500 ng/mL): −7.5%
- Stability RE (%) ([2]; rat plasma, room temperature for 2 h, spiked conc. 1000 ng/mL): 1.2%
- Stability RE (%) ([2]; rat plasma, three freeze/thaw cycles, spiked conc. 5 ng/mL): −6.4%
- Stability RE (%) ([2]; rat plasma, three freeze/thaw cycles, spiked conc. 500 ng/mL): 2.6%
- Stability RE (%) ([2]; rat plasma, three freeze/thaw cycles, spiked conc. 1000 ng/mL): −2.0%
- Stability RE (%) ([2]; rat plasma, −80 °C for 30 days, spiked conc. 5 ng/mL): 5.3%
- Stability RE (%) ([2]; rat plasma, −80 °C for 30 days, spiked conc. 500 ng/mL): −6.2%
- Stability RE (%) ([2]; rat plasma, −80 °C for 30 days, spiked conc. 1000 ng/mL): −4.6%
- Stability in plasma with NaF added (in words) ([2]; room temperature for 4 h, −80 °C for 30 days, three freeze/thaw cycles): stable
SMILES: C[C@@H](NC(=O)C(O)Cc1ccc(O)c(O)c1)C(=O)N1CCC[C@H]1C(=O)OC1CC2CCC1(C)C2(C)C (stereo partly drawn) [DAPB, (2R)-3-(3,4-dihydroxyphenyl)-2-hydroxypropionyl-L-alanyl-L-proline bornyl ester]
- Decrease of diastolic blood pressure (DBP) (SHR rats): 35 mmHg
- Decrease of systolic blood pressure (SBP) (SHR rats): 50 mmHg
